Measurements reported in ChEMBL document CHEMBL3885861, “Open TG-GATES”.

Species: Rattus norvegicus
Assay: Open TG-GATES - Regimen: Daily Repeat
Assay type: toxicity, organism-based, Sprague-Dawley
Set-up: regimen Daily Repeat, gender Male, age 6 weeks
Settings: in vivo, iv, route intravenous injection; for APTT / Bas / Eos / Fbg / Hb / Ht / Lym / MCH / MCHC / MCV / Mono / Neu / PT / Plat / RBC / Ret / WBC: tissue Blood; for KIDNEY_L / KIDNEY_R / KIDNEY_TOTAL: tissue Kidney; for LIVER: tissue Liver; for ALP / ALT / AST / BUN / CRE / Ca / Cl / DBIL / GLC / IP / K / LDH / Na / PL / RALB / TBIL / TC / TG / TP / gamma-GTP: tissue Plasma
[1] = 1000 mg/kg, 72 h, dose level Middle, time 3 day
[2] = 1000 mg/kg, […], dose level Middle, time 7 day
[3] = 1000 mg/kg, […], dose level Middle, time 14 day
[4] = 1000 mg/kg, […], dose level Middle, time 28 day
[5] = 2000 mg/kg, 72 h, dose level High, time 3 day
[6] = 2000 mg/kg, […], dose level High, time 7 day
[7] = 2000 mg/kg, […], dose level High, time 14 day
[8] = 2000 mg/kg, […], dose level High, time 28 day

## CC(=O)OCC1=C(C(=O)O)N2C(=O)[C@@H](NC(=O)Cc3cccs3)[C@H]2SC1 [CEPHALOTHIN]
[1]
  TERMINAL_BW: 236.8 g
  APTT: 22.6 s
  Bas: 0%
  Eos: 1%
  Fbg: 308.4 mg/dL
  Hb: 13.4 g/dL
  Ht: 38.7%
  Lym: 87.2%
  MCH: 21.3 pg
  MCHC: 34.7%
  MCV: 61.6 fL
  Mono: 2.6%
  Neu: 8.2%
  PT: 16 s
  Plat: 120.2 x10_4/uL
  RBC: 630.2 x10_4/ul
  Ret: 5%
  WBC: 80.1 x10_2/uL
  KIDNEY_L: 1 g
  KIDNEY_R: 1 g
  KIDNEY_TOTAL: 2 g
  LIVER: 10.2 g
  ALP: 1638.6 IU/L
  ALT: 44.6 IU/L
  AST: 71.2 IU/L
  BUN: 18 mg/dL
  CRE: 0.2 mg/dL
  Ca: 10.6 mg/dL
  Cl: 105.2 meq/L
  DBIL: 0 mg/dL
  GLC: 160 mg/dL
  IP: 7.1 mg/dL
  K: 4.5 meq/L
  LDH: 147.8 IU/L
  Na: 141.2 meq/L
  PL: 141.6 mg/dL
  RALB: 3 g/dL
  TBIL: 0.008 mg/dL
  TC: 85.2 mg/dL
  TG: 65.8 mg/dL
  TP: 5.5 g/dL
  gamma-GTP: 1.4 IU/L
[2]
  TERMINAL_BW: 261.5 g
  APTT: 21.6 s
  Bas: 0%
  Eos: 1.2%
  Fbg: 323 mg/dL
  Hb: 13.2 g/dL
  Ht: 38%
  Lym: 87.2%
  MCH: 20.7 pg
  MCHC: 34.8%
  MCV: 59.3 fL
  Mono: 2.2%
  Neu: 9%
  PT: 17 s
  Plat: 135.9 x10_4/uL
  RBC: 640.6 x10_4/ul
  Ret: 5.5%
  WBC: 90.6 x10_2/uL
  KIDNEY_L: 1.1 g
  KIDNEY_R: 1.1 g
  KIDNEY_TOTAL: 2.3 g
  LIVER: 12.2 g
  ALP: 1283 IU/L
  ALT: 35.4 IU/L
  AST: 64.4 IU/L
  BUN: 16.2 mg/dL
  CRE: 0.2 mg/dL
  Ca: 11 mg/dL
  Cl: 105.4 meq/L
  DBIL: 0.002 mg/dL
  GLC: 171.8 mg/dL
  IP: 7.3 mg/dL
  K: 4.2 meq/L
  LDH: 148.4 IU/L
  Na: 141.6 meq/L
  PL: 134.6 mg/dL
  RALB: 3 g/dL
  TBIL: 0.02 mg/dL
  TC: 70.4 mg/dL
  TG: 94.6 mg/dL
  TP: 5.6 g/dL
  gamma-GTP: 1.8 IU/L
[3]
  TERMINAL_BW: 302.8 g
  APTT: 23.4 s
  Bas: 0%
  Eos: 0.8%
  Fbg: 260.8 mg/dL
  Hb: 13.9 g/dL
  Ht: 39%
  Lym: 89.2%
  MCH: 20.2 pg
  MCHC: 35.6%
  MCV: 56.6 fL
  Mono: 2.2%
  Neu: 6.8%
  PT: 16.2 s
  Plat: 123.9 x10_4/uL
  RBC: 689.8 x10_4/ul
  Ret: 5%
  WBC: 109.6 x10_2/uL
  KIDNEY_L: 1.2 g
  KIDNEY_R: 1.3 g
  KIDNEY_TOTAL: 2.5 g
  LIVER: 12.7 g
  ALP: 1231.6 IU/L
  ALT: 35.2 IU/L
  AST: 66.4 IU/L
  BUN: 15.6 mg/dL
  CRE: 0.2 mg/dL
  Ca: 10.5 mg/dL
  Cl: 106 meq/L
  DBIL: 0 mg/dL
  GLC: 170.2 mg/dL
  IP: 6.7 mg/dL
  K: 4.2 meq/L
  LDH: 96.2 IU/L
  Na: 140.6 meq/L
  PL: 143 mg/dL
  RALB: 3 g/dL
  TBIL: 0.01 mg/dL
  TC: 73.6 mg/dL
  TG: 109.8 mg/dL
  TP: 5.6 g/dL
  gamma-GTP: 2.4 IU/L
[4]
  TERMINAL_BW: 376.7 g
  APTT: 24.8 s
  Bas: 0%
  Eos: 1.4%
  Fbg: 294.4 mg/dL
  Hb: 14.9 g/dL
  Ht: 40.5%
  Lym: 88.2%
  MCH: 19.6 pg
  MCHC: 36.8%
  MCV: 53.1 fL
  Mono: 1.8%
  Neu: 7.6%
  PT: 16.2 s
  Plat: 113.8 x10_4/uL
  RBC: 762.8 x10_4/ul
  Ret: 2.8%
  WBC: 98 x10_2/uL
  KIDNEY_L: 1.4 g
  KIDNEY_R: 1.4 g
  KIDNEY_TOTAL: 2.8 g
  LIVER: 14.6 g
  ALP: 1075.4 IU/L
  ALT: 31 IU/L
  AST: 62 IU/L
  BUN: 16.6 mg/dL
  CRE: 0.2 mg/dL
  Ca: 10.4 mg/dL
  Cl: 106.6 meq/L
  DBIL: 0.004 mg/dL
  GLC: 175.4 mg/dL
  IP: 5.9 mg/dL
  K: 4.2 meq/L
  LDH: 148 IU/L
  Na: 142.4 meq/L
  PL: 135.4 mg/dL
  RALB: 3.1 g/dL
  TBIL: 0.018 mg/dL
  TC: 67.6 mg/dL
  TG: 116.4 mg/dL
  TP: 5.9 g/dL
  gamma-GTP: 1.2 IU/L
[5]
  TERMINAL_BW: 233 g
  APTT: 22.3 s
  Bas: 0%
  Eos: 1.2%
  Fbg: 311.4 mg/dL
  Hb: 13.7 g/dL
  Ht: 38.7%
  Lym: 87.2%
  MCH: 21.3 pg
  MCHC: 35.3%
  MCV: 60.3 fL
  Mono: 2.2%
  Neu: 9%
  PT: 16.2 s
  Plat: 128.7 x10_4/uL
  RBC: 642 x10_4/ul
  Ret: 4.9%
  WBC: 71.5 x10_2/uL
  KIDNEY_L: 1 g
  KIDNEY_R: 1 g
  KIDNEY_TOTAL: 2.1 g
  LIVER: 10.2 g
  ALP: 1558.6 IU/L
  ALT: 43 IU/L
  AST: 72.2 IU/L
  BUN: 17.6 mg/dL
  CRE: 0.2 mg/dL
  Ca: 10.4 mg/dL
  Cl: 106 meq/L
  DBIL: 0.004 mg/dL
  GLC: 173.6 mg/dL
  IP: 7.5 mg/dL
  K: 4.4 meq/L
  LDH: 152.4 IU/L
  Na: 141.6 meq/L
  PL: 132.8 mg/dL
  RALB: 3.1 g/dL
  TBIL: 0.03 mg/dL
  TC: 80.6 mg/dL
  TG: 40.4 mg/dL
  TP: 5.5 g/dL
  gamma-GTP: 1.8 IU/L
[6]
  TERMINAL_BW: 255 g
  APTT: 22.8 s
  Bas: 0%
  Eos: 0.8%
  Fbg: 347.2 mg/dL
  Hb: 13.4 g/dL
  Ht: 38.1%
  Lym: 83.8%
  MCH: 20.8 pg
  MCHC: 35.1%
  MCV: 59.4 fL
  Mono: 2.4%
  Neu: 12.4%
  PT: 16.7 s
  Plat: 132.5 x10_4/uL
  RBC: 642.8 x10_4/ul
  Ret: 6.3%
  WBC: 96.8 x10_2/uL
  KIDNEY_L: 1.1 g
  KIDNEY_R: 1.1 g
  KIDNEY_TOTAL: 2.2 g
  LIVER: 12 g
  ALP: 1549.6 IU/L
  ALT: 42.4 IU/L
  AST: 71.2 IU/L
  BUN: 19.6 mg/dL
  CRE: 0.2 mg/dL
  Ca: 10.8 mg/dL
  Cl: 107.6 meq/L
  DBIL: 0 mg/dL
  GLC: 169.2 mg/dL
  IP: 7 mg/dL
  K: 4.5 meq/L
  LDH: 152.8 IU/L
  Na: 141.6 meq/L
  PL: 138.6 mg/dL
  RALB: 3 g/dL
  TBIL: 0.008 mg/dL
  TC: 69.8 mg/dL
  TG: 103.2 mg/dL
  TP: 5.6 g/dL
  gamma-GTP: 2 IU/L
[7]
  TERMINAL_BW: 294.7 g
  APTT: 23.6 s
  Bas: 0%
  Eos: 1%
  Fbg: 269.2 mg/dL
  Hb: 14.4 g/dL
  Ht: 40.1%
  Lym: 84.6%
  MCH: 20.7 pg
  MCHC: 35.9%
  MCV: 57.5 fL
  Mono: 2%
  Neu: 12%
  PT: 16 s
  Plat: 117.3 x10_4/uL
  RBC: 695.2 x10_4/ul
  Ret: 5%
  WBC: 118.2 x10_2/uL
  KIDNEY_L: 1.2 g
  KIDNEY_R: 1.2 g
  KIDNEY_TOTAL: 2.4 g
  LIVER: 12.9 g
  ALP: 1210 IU/L
  ALT: 40.6 IU/L
  AST: 72 IU/L
  BUN: 18.6 mg/dL
  CRE: 0.2 mg/dL
  Ca: 10.6 mg/dL
  Cl: 106.2 meq/L
  DBIL: 0 mg/dL
  GLC: 176.8 mg/dL
  IP: 6.3 mg/dL
  K: 4.3 meq/L
  LDH: 142.8 IU/L
  Na: 141.4 meq/L
  PL: 142.4 mg/dL
  RALB: 3.1 g/dL
  TBIL: 0.018 mg/dL
  TC: 73.6 mg/dL
  TG: 110.2 mg/dL
  TP: 5.8 g/dL
  gamma-GTP: 2.4 IU/L
[8]
  TERMINAL_BW: 341.3 g
  APTT: 24.6 s
  Bas: 0%
  Eos: 1.6%
  Fbg: 283.8 mg/dL
  Hb: 15.6 g/dL
  Ht: 42.2%
  Lym: 84.8%
  MCH: 19.6 pg
  MCHC: 37%
  MCV: 52.9 fL
  Mono: 2.4%
  Neu: 10.8%
  PT: 16.1 s
  Plat: 100.5 x10_4/uL
  RBC: 797.8 x10_4/ul
  Ret: 3.2%
  WBC: 103.9 x10_2/uL
  KIDNEY_L: 1.4 g
  KIDNEY_R: 1.4 g
  KIDNEY_TOTAL: 2.7 g
  LIVER: 13.8 g
  ALP: 899.6 IU/L
  ALT: 38 IU/L
  AST: 69.2 IU/L
  BUN: 16 mg/dL
  CRE: 0.2 mg/dL
  Ca: 10.4 mg/dL
  Cl: 106.2 meq/L
  DBIL: 0.002 mg/dL
  GLC: 166.8 mg/dL
  IP: 5.6 mg/dL
  K: 4.1 meq/L
  LDH: 105.2 IU/L
  Na: 142.6 meq/L
  PL: 129.8 mg/dL
  RALB: 3.2 g/dL
  TBIL: 0.034 mg/dL
  TC: 62.4 mg/dL
  TG: 93.8 mg/dL
  TP: 6.1 g/dL
  gamma-GTP: 1.8 IU/L
